Results taken from patent US20200000872A1, “A COMPOSITION COMPRISING AT LEAST ONE GNRH ANTAGONIST” (ANTEV LIMITED, priority 2017, published 2020).
Structures can show the parent of a compound that is named as a salt. Non-standard residues stand in square brackets, D forms with d. Residues, ends and D or L forms follow the SMILES beside them. Phe(4-Cl) = N[C@@H](Cc1ccc(Cl)cc1)C(=O)O; dPhe(4-Cl) = N[C@H](Cc1ccc(Cl)cc1)C(=O)O; d2Nal = N[C@H](Cc1ccc2ccccc2c1)C(=O)O; d(hCit) = NC(=O)NCCCC[C@@H](N)C(=O)O; Lys(iPr) = CC(C)NCCCC[C@H](N)C(=O)O; d3Pal = N[C@H](Cc1cccnc1)C(=O)O

Tests used:
[1] = Phase I study D-84812-Z012, single s.c. injection: pharmacokinetics of teverelix; assay type: in vivo, human; conditions: between the 60 mg and 90 mg doses
[2] = compared with degarelix; cited from earlier work
[3] = Phase I study D-84812-Z012, single s.c. injection: safety and tolerability; assay type: in vivo, human; conditions: doses of up to 90 mg, 32 healthy male volunteers
[4] = Phase I study EP-24332T-A004, repeated s.c. injections: safety and tolerability; assay type: in vivo, human; conditions: 2 s.c. doses of 60 mg or 90 mg at 24 h or 48 h interval
Method: In a second Phase I study (EP-24332T-A004), a second injection was administered 24 h or 48 h after the first in order to increase and prolong the initial peak, as well as increase the teverelix level and consequently the number of subjects castrated. As the previous Phase I study had shown 10 mg and 30 mg to be insufficient to provide a long-term suppression, 2 doses of 60 mg or 90 mg (6 subjects per group) or placebo (4 subjects) were administered at a 24 h interval and 2 doses of 90 mg at a 48 h interval. […] No critical safety findings were reported. […] The protocol of the study included 6 subjects who received 90 mg Teverelix TFA on D1; D2; D3.

dose proportionality [1] | SMILES | local irritation at the administration site [2] | tolerability [3] | local reactions at the injection sites [4] | tolerability [4]
demonstrated | CC(=O)N[C@H](Cc1ccc2ccccc2c1)C(=O)N[C@H](Cc1ccc(Cl)cc1)C(=O)N[C@H](Cc1cccnc1)C(=O)N[C@@H](CO)C(=O)N[C@@H](Cc1ccc(O)cc1)C(=O)N[C@H](CCCCNC(N)=O)C(=O)N[C@@H](CC(C)C)C(=O)N[C@@H](CCCCNC(C)C)C(=O)N1CCC[C@H]1C(=O)N[C@H](C)C(N)=O [Teverelix TFA, teverelix trifluoroacetate] (Ac-[d2Nal][dPhe(4-Cl)][d3Pal]SY[d(hCit)]L[Lys(iPr)]P[dA]-NH2) | less local irritation at the administration site than degarelix | tolerated well | – | –
– | CC(=O)N[C@H](Cc1ccc2ccccc2c1)C(=O)N[C@@H](Cc1ccc(Cl)cc1)C(=O)N[C@H](Cc1cccnc1)C(=O)N[C@@H](CO)C(=O)N[C@H](Cc1ccc(O)cc1)C(=O)N[C@H](CCCCNC(N)=O)C(=O)N[C@@H](CC(C)C)C(=O)N[C@@H](CCCCNC(C)C)C(=O)N1CCC[C@H]1C(=O)N[C@H](C)C(N)=O [teverelix, Ac-D-Nal-D-pClPhe-D-Pal-Ser-Tyr-D-Hci-Leu-Lys(iPr)-Pro-D-Ala-NH2] (Ac-[d2Nal][Phe(4-Cl)][d3Pal]S[dY][d(hCit)]L[Lys(iPr)]P[dA]-NH2) | – | – | only mild local indurations | tolerated well
